Values after ≈ are worked out from the molar mass of the structure shown. Read-outs that look alike come from different tables or passages of the source.
What was measured:
Type in all cases: cell-based
[1] = test system: Escherichia coli MC4100 harboring the IMP4213 (E. coli IMP); assay: microbe, parasite or virus in culture; details: for MIC (μg/mL) E. coli IMP: E. coli MC4100 IMP4213, increased outer-membrane permeability; for MIC: Escherichia coli, 22 h
Method: (§1) In vitro antimicrobial activity of each compound was determined by measuring minimal inhibitor concentrations (MICs) using the broth micro-dilution technique as approved by the Clinical and Laboratory Standards Institute (CLSI) (Methods for Dilution Antimicrobial Susceptibility Tests for Bacteria that Grow Aerobically; Approved Standard—Eighth Edition. CLSI document M07-A8. Wayne, Pa.: Clinical and Laboratory Standards; 2009). Antibacterial activity was measure against three strains of bacteria: a Methicillin Resistant Staphylococcus aureus strain USA 300, NRS384 (S. aureus); a strain of Escherichia coli MC4100 harboring the IMP4213 (E. coli IMP), which results in increased outer-membrane permeability (B Martin and Silhavy T. Imp/OstA is required for cell envelope biogenesis in Escherichia coli. (2002) Molecular Microbiology, 45(5), 1289-1302), and Escherichia coli ATCC 25922 (E. coli), a clinically relevant Gram-negative strain. Cells were inoculated onto plates of Trypyticase Soy Agar or Luria Agar respectively and grown at 35° C. for 20 hours. Inocula suspensions were prepared by scraping cells into 1 mL of testing media (cation adjusted Mueller Hinton Broth supplemented with 0.002% v/v Tween-80) and diluting to a final OD600 nm of 0.01.
(§2) Test compounds were prepared in DMSO at a concentration of 10 mg/mL. […] In protocol 2, the compound stocks were diluted into testing media at a concentration of 4 μg/mL and serial 2-fold dilutions were made in the same media, in 96-well U bottom microtiter dishes, for a total of 10 compound concentrations. In protocol 3, compound stocks were diluted into testing media at a concentration of 0.5 μg/mL, with serial 2-fold dilutions conducted as described above. […] Inocula suspensions were added to the 2-fold serial dilutions of test compounds to a final density of OD OD600 nm of 0.0005 and incubated at 35° C. for 22 hours.

[2] = test system: Escherichia coli ATCC 25922; assay: Minimum inhibitory concentration, broth micro-dilution (CLSI), E. coli; details: for MIC: Escherichia coli, ATCC25922, 22 h
Method: Cells were inoculated onto plates of Trypyticase Soy Agar or Luria Agar respectively and grown at 35° C. for 20 hours. Inocula suspensions were prepared by scraping cells into 1 mL of testing media (cation adjusted Mueller Hinton Broth supplemented with 0.002% v/v Tween-80) and diluting to a final OD600 nm of 0.01.
as §2

[3] = test system: Methicillin Resistant Staphylococcus aureus strain USA 300, NRS384; assay: Minimum inhibitory concentration, broth micro-dilution (CLSI), S. aureus; details: for MIC: Staphylococcus aureus, MRSA / NRS 384 / USA300, 22 h
Method: as §1, §2

[4] = E. coli ATCC 25922, 35° C., 22 hours
[5] = MRSA USA 300 NRS384, 35° C., 22 hours
[6] = read-out: MIC (μg/mL) E. coli IMP, E. coli MC4100 IMP4213, increased outer-membrane permeability, 35° C., 22 hours
[7] = E. coli ATCC 25922, 35° C., 22 hours, read-out: MIC (μg/mL) E. coli
[8] = MRSA USA 300 NRS384, 35° C., 22 hours, read-out: MIC (μg/mL) S. aureus

SMILES	MIC [1, 6] [µg/mL]	MIC [2, 7] [µg/mL]	MIC [3, 8] [µg/mL]	other results
Cc1cc(C2CC2c2ccccc2)ccc1C(=O)N[C@@H](CCN)C(=O)N(C)[C@@H]1C(=O)N[C@@H](C)C(=O)N[C@H](C(=O)NCC#N)Cc2ccc(OCCN)c(c2)-c2cc1ccc2OCCN (mixture of isomers) [Compound 439]	–	–	–	MIC (μg/mL) E. coli IMP ([1]; 35° C., 22 hours): 0.0078 µg/mL; MIC (μg/mL) E. coli [2, 4]: 0.5 µg/mL; MIC (μg/mL) S. aureus [3, 5]: 0.047 µg/mL
CCCCc1ccc(NC(=O)CC(CCN)C(=O)N(C)[C@@H]2C(=O)N[C@@H](C)C(=O)N[C@H](C(=O)NCC#N)Cc3ccc(OCCN)c(c3)-c3cc2ccc3OCCN)c(C)c1 (mixture of isomers) [Compound 456]	0.5	64	0.25	–
C[C@@H]1NC(=O)[C@@H](N(C)C(=O)[C@H](CCCCN)NC(=O)c2ccc(-c3ccc(Cl)cc3)cc2)c2ccc(OCC(O)CN)c(c2)-c2cc(ccc2OCC(O)CN)C[C@@H](C(=O)NCC#N)NC1=O (mixture of isomers) [Compound 515]	0.063	4	0.094	–
CCCCCCCCCC(=O)N[C@H](C(=O)N[C@@H](CCN)C(=O)N(C)[C@@H]1C(=O)N[C@@H](C)C(=O)N[C@H](C(=O)NCC#N)Cc2ccc(OCCN)c(c2)-c2cc1ccc2OCCN)C(C)O (single isomer, unassigned) [Compound 357-P1]	0.5 (≈ 0.56 µM)	–	–	MIC ([2]; read-out: MIC (μg/mL) E. coli, E. coli ATCC 25922, 35° C., 22 hours): 64 µg/mL (≈ 71.7 µM); MIC ([3]; read-out: MIC (μg/mL) S. aureus, MRSA USA 300 NRS384, 35° C., 22 hours): 0.5 µg/mL (≈ 0.56 µM)
CCCCCCCc1ccc(C(=O)NC(CCNC)C(=O)N(C)[C@@H]2C(=O)N[C@@H](C)C(=O)N[C@H](C(=O)NCC#N)Cc3ccc(OCCN)c(c3)-c3cc2ccc3OCCN)c(C)c1 (single isomer, unassigned) [Compound 490-P1]	0.068 (≈ 0.0783 µM)	–	–	MIC (μg/mL) E. coli [2, 4]: 0.75 µg/mL (≈ 0.864 µM); MIC (μg/mL) S. aureus [3, 5]: 0.073 µg/mL (≈ 0.0841 µM)
CCCCCCCc1ccc(C(=O)NC(CCNC)C(=O)N(C)[C@@H]2C(=O)N[C@@H](C)C(=O)N[C@H](C(=O)NCC#N)Cc3ccc(OCCN)c(c3)-c3cc2ccc3OCCN)c(C)c1 (single isomer, unassigned) [Compound 490-P2]	–	–	–	MIC (μg/mL) E. coli IMP ([1]; 35° C., 22 hours): >0.13 µg/mL; MIC (μg/mL) E. coli [2, 4]: 8 µg/mL (≈ 9.22 µM); MIC (μg/mL) S. aureus [3, 5]: >0.50 µg/mL
CCCCCCCCCCCNC(=O)C(CCN)C(=O)N(C)[C@@H]1C(=O)N[C@@H](C)C(=O)N[C@H](C(=O)NCC#N)Cc2ccc(OCCN)c(c2)-c2cc1ccc2OCCN (single isomer, unassigned) [Compound 497-P1]	–	–	–	MIC (μg/mL) E. coli IMP ([1]; 35° C., 22 hours): 0.016 µg/mL (≈ 0.0195 µM); MIC (μg/mL) E. coli [2, 4]: 2 µg/mL (≈ 2.44 µM); MIC (μg/mL) S. aureus [3, 5]: 0.063 µg/mL (≈ 0.0768 µM)
CCCCCCCCCCCNC(=O)C(CCN)C(=O)N(C)[C@@H]1C(=O)N[C@@H](C)C(=O)N[C@H](C(=O)NCC#N)Cc2ccc(OCCN)c(c2)-c2cc1ccc2OCCN (single isomer, unassigned) [Compound 497-P2]	–	–	–	MIC (μg/mL) E. coli IMP ([1]; 35° C., 22 hours): 0.38 µg/mL (≈ 0.463 µM); MIC (μg/mL) E. coli [2, 4]: 24 µg/mL (≈ 29.3 µM); MIC (μg/mL) S. aureus [3, 5]: 1 µg/mL (≈ 1.22 µM)
CCCCCCc1ccc(C(=O)N2CCC(N)C[C@@H]2C(=O)N(C)[C@@H]2C(=O)N[C@@H](C)C(=O)N[C@H](C(=O)NCC#N)Cc3ccc(OCCN)c(c3)-c3cc2ccc3OCCN)c(C)c1 (single isomer, unassigned) [Compound 526-1]	0.13 (≈ 0.15 µM)	16 (≈ 18.5 µM)	0.19 (≈ 0.219 µM)	–
CCCCCCc1ccc(C(=O)N2CCC(N)C[C@H]2C(=O)N(C)[C@@H]2C(=O)N[C@@H](C)C(=O)N[C@H](C(=O)NCC#N)Cc3ccc(OCCN)c(c3)-c3cc2ccc3OCCN)c(C)c1 (single isomer, unassigned) [Compound 526-2]	–	–	–	MIC (μg/mL) E. coli IMP ([1]; 35° C., 22 hours): >0.13 µg/mL; MIC (μg/mL) E. coli [2, 4]: 64 µg/mL (≈ 73.9 µM); MIC (μg/mL) S. aureus [3, 5]: >0.5 µg/mL
C[C@@H]1NC(=O)[C@@H](N(C)C(=O)[C@H](CCN)NC(=O)c2ccc3c(c2)CCCC3)c2ccc(OCCN)c(c2)-c2cc(ccc2OCCN)C[C@@H](C(=O)NCC#N)NC1=O [Compound 119]	0.25 (≈ 0.314 µM)	16 (≈ 20.1 µM)	1 (≈ 1.26 µM)	–
C[C@@H]1NC(=O)[C@@H](N(C)C(=O)[C@H](CCN)NC(=O)c2ccc3ccccc3c2)c2ccc(OCCN)c(c2)-c2cc(ccc2OCCN)C[C@@H](C(=O)NCC#N)NC1=O [Compound 125]	0.25 (≈ 0.316 µM)	16 (≈ 20.2 µM)	2 (≈ 2.53 µM)	–
C[C@@H]1NC(=O)[C@@H](N(C)C(=O)[C@H](CCN)NC(=O)CCCC2CCCCC2)c2ccc(OCCN)c(c2)-c2cc(ccc2OCCN)C[C@@H](C(=O)NCC#N)NC1=O [Compound 126]	0.25 (≈ 0.316 µM)	32 (≈ 40.5 µM)	0.5 (≈ 0.633 µM)	–
Cc1ccc(C(=O)N[C@@H](CCN)C(=O)N(C)[C@@H]2C(=O)N[C@@H](C)C(=O)N[C@H](C(=O)NCC#N)Cc3ccc(OCCN)c(c3)-c3cc2ccc3OCCN)c(C)c1 [Compound 128]	0.5 (≈ 0.649 µM)	16 (≈ 20.8 µM)	4 (≈ 5.2 µM)	–
CCc1ccc(-c2ccc(C(=O)N[C@@H](CCCN)C(=O)N(C)[C@@H]3C(=O)N[C@@H](C)C(=O)N[C@H](C(=O)NCC#N)Cc4ccc(OCCN)c(c4)-c4cc3ccc4OCCN)c(C)c2)cc1 [Compound 152]	0.014 (≈ 0.016 µM)	0.63 (≈ 0.721 µM)	0.031 (≈ 0.0355 µM)	–
Cc1nc(-c2ccc(C(C)(C)C)cc2)ncc1C(=O)N[C@@H](CCCN)C(=O)N(C)[C@@H]1C(=O)N[C@@H](C)C(=O)N[C@H](C(=O)NCC#N)Cc2ccc(OCCN)c(c2)-c2cc1ccc2OCCN [Compound 153]	–	–	–	MIC ([1]; read-out: MIC (μg/mL) E. coli IMP): 0.0059 µg/mL (≈ 0.00653 µM); MIC ([2]; read-out: MIC (μg/mL) E. coli): 0.19 µg/mL (≈ 0.21 µM); MIC ([3]; read-out: MIC (μg/mL) S. aureus): 0.023 µg/mL (≈ 0.0254 µM)
CCCCc1ccc(-c2ncc(C(=O)N[C@@H](CCCN)C(=O)N(C)[C@@H]3C(=O)N[C@@H](C)C(=O)N[C@H](C(=O)NCC#N)Cc4ccc(OCCN)c(c4)-c4cc3ccc4OCCN)c(C)n2)cc1 [Compound 154]	0.0059 (≈ 0.00653 µM)	0.25 (≈ 0.277 µM)	0.012 (≈ 0.0133 µM)	–
CCCCc1ccc(-c2ncc(C(=O)N[C@@H](CCN)C(=O)N(C)[C@@H]3C(=O)N[C@@H](C)C(=O)N[C@H](C(=O)NCC#N)Cc4ccc(OCCN)c(c4)-c4cc3ccc4OCCN)c(C)n2)cc1 [Compound 156]	0.0044 (≈ 0.00494 µM)	0.063 (≈ 0.0708 µM)	0.016 (≈ 0.018 µM)	–
Cc1nc(-c2ccc(-c3ccccc3)cc2)ncc1C(=O)N[C@@H](CCN)C(=O)N(C)[C@@H]1C(=O)N[C@@H](C)C(=O)N[C@H](C(=O)NCC#N)Cc2ccc(OCCN)c(c2)-c2cc1ccc2OCCN [Compound 158]	0.002 (≈ 0.0022 µM)	0.11 (≈ 0.121 µM)	0.031 (≈ 0.0341 µM)	–
CCCc1ccc(-c2ncc(C(=O)N[C@@H](CCN)C(=O)N(C)[C@@H]3C(=O)N[C@@H](C)C(=O)N[C@H](C(=O)NCC#N)Cc4ccc(OCCN)c(c4)-c4cc3ccc4OCCN)c(C)n2)cc1 [Compound 161]	0.003 (≈ 0.00342 µM)	0.13 (≈ 0.148 µM)	0.031 (≈ 0.0354 µM)	–
Cc1cc(-c2ccc(CC(C)C)cc2)ncc1C(=O)N[C@@H](CCN)C(=O)N(C)[C@@H]1C(=O)N[C@@H](C)C(=O)N[C@H](C(=O)NCC#N)Cc2ccc(OCCN)c(c2)-c2cc1ccc2OCCN [Compound 167]	0.0049 (≈ 0.00551 µM)	0.14 (≈ 0.157 µM)	0.023 (≈ 0.0259 µM)	–
Cc1nc(-c2ccc(CC(C)C)cc2)ccc1C(=O)N[C@@H](CCN)C(=O)N(C)[C@@H]1C(=O)N[C@@H](C)C(=O)N[C@H](C(=O)NCC#N)Cc2ccc(OCCN)c(c2)-c2cc1ccc2OCCN [Compound 169]	0.0078 (≈ 0.00877 µM)	0.13 (≈ 0.146 µM)	0.023 (≈ 0.0259 µM)	–
Cc1cc(-c2ccc(CC(C)C)cn2)ccc1C(=O)N[C@@H](CCN)C(=O)N(C)[C@@H]1C(=O)N[C@@H](C)C(=O)N[C@H](C(=O)NCC#N)Cc2ccc(OCCN)c(c2)-c2cc1ccc2OCCN [Compound 173]	0.016 (≈ 0.018 µM)	0.31 (≈ 0.349 µM)	0.094 (≈ 0.106 µM)	–
C[C@@H]1NC(=O)[C@@H](N(C)C(=O)[C@H](CCN)NC(=O)c2cccc3ccccc23)c2ccc(OCCN)c(c2)-c2cc(ccc2OCCN)C[C@@H](C(=O)NCC#N)NC1=O [Compound 492]	–	–	2 (≈ 2.53 µM)	MIC (μg/mL) S. aureus [3, 5]: 3 µg/mL (≈ 3.79 µM)

— US20180327367A1, “MACROCYCLIC BROAD SPECTRUM ANTIBIOTICS” (priority 2015, published 2018)
